Several values for one entry are separate records, joined by “and”; a condition that tells them apart may be missing. Equal entries are not always repeated.
Tested on: isolated bovine cornea
Assay: Bovine Corneal Opacity and Permeability test (BCOP)
Design: key to Mean Opacity Change: mean of final − initial opacity; opacity = (I0/I − 0.9894)/0.0251
Description: The BCOP Assay was performed to evaluate the eye hazard potential of BondLynx, as measured by its ability to induce opacity and increase permeability in an isolated bovine cornea. The BCOP is an in vitro model that provides short-term maintenance of normal physiological and biological function of the bovine cornea in an isolated system so that eye damage can be assessed by quantitative measurements of changes in corneal opacity and permeability.[45],[46]
Tests were performed using bovine corneas isolated from the eyes of young cattle after slaughter and transported in biological saline under cooled conditions. […] BondLynx was ground with a mortar and pestle and applied directly to the corneas as a solid. Tests were performed in triplicate.
Bovine eyes were checked for unacceptable defects, such as opacity, scratches, pigmentation, and neovascularization upon receipt by removing them from the physiological saline and holding them in the light. Corneas were isolated from acceptable specimens and stored in a petri dish with cMEM (Eagle’s Minimum Essential Medium with 1% v/v L-glutamine and 1% v/v foetal bovine serum) at 32 ± 1°C. Isolated corneas were mounted in a corneal holder with the endothelial side against the O-ring of the posterior half of the holder and the anterior half of the holder tightened on top of the cornea with screws. The compartments of the corneal holder were filled with cMEM and the corneas were incubated for a minimum of 1 h at 32 ± 1°C. The initial corneal opacity was determined by replacing the medium in both compartments with fresh cMEM and using an opacitometer to measure the opacity against a cMEM filled chamber. Only corneas with an initial opacity <7 were used for testing.
A total of three samples were prepared for each test item by removing the medium from the anterior compartment of the holder and applying 750 μL of positive or negative control, or 306.6-333.6 mg of BondLynx. The corneal holders were positioned so that the test item uniformly covered the cornea within, and the entire assembly was incubated at 32 ± 1°C for 240 ± 10 min. The test item was then removed, and the epithelium was washed at least three times with MEM containing phenol red. Corneas were visually inspected for pH effects and dissimilar opacity patterns before refilling both compartments with fresh cMEM.
Corneal opacity was measured by the diminution of light (I = luminous flux per area) passing through the cornea. The opacity value was calculated according to the formula: Opacity=I0/I−0.9894/0.0251 where I0 is the empirically determined illuminance through a cornea holder with just windows and medium and I is the measured illuminance through a holder with a cornea. The change in opacity for each individual cornea was calculated by subtracting the initial opacity from the final post-treatment reading, and the corrected opacity was calculated by subtracting the average change in opacity of the negative control corneas (if > 0) from the change in opacity for corneas treated with BondLynx or positive control.
Following the final opacity measurement, permeability of the cornea to Na-fluorescein was evaluated by removing the medium from both corneal holder compartments, then refilling the posterior compartment with fresh cMEM and the anterior compartment with 1 mL of Na-fluorescein in cMEM (5 mg/mL). The corneal holders were positioned so that the test item uniformly covered the cornea within, and the entire assembly was incubated at 32 ± 1°C for 90 ± 5 min. The medium from the posterior compartment was then removed, and a 360 μL aliquot was placed in a 96-well plate to measure the OD490 in triplicate. Any sample with an OD490 that was 1.500 or higher was diluted to bring the OD490 into the acceptable range. The corrected OD490 was calculated by subtracting the average change in OD490 for the negative control (if > 0) from the change in OD490 of either BondLynx or positive control treated cornea.

With `FC(F)(F)C1(c2ccc(C(c3ccc(C4(C(F)(F)F)N=N4)cc3)(C(F)(F)F)C(F)(F)F)cc2)N=N1` [BondLynx, 2,2-bis-[4-[3-(trifluoromethyl)-3H-diazirin-3-yl]phenyl]hexafluoropropane] the Opacity (240 min exposure, individual corneas) was 0.9 and 0.7, the “Appearance of corneas after treatment” value (240 min of treatment) was “clear” and the “UN GHS eye damage classification” value (IVIS <3: No Category) was “does not require classification for eye damage or irritation”. The “pH effects in the rinsing medium” value (after 240 min exposure) was “No pH effects”, the “Corrected Opacity Change” value (individual corneas) was 1.6 and 0.9 and 0.7 and the “Final Opacity” value (individual corneas, after 240 min treatment) was 1.9 and 0.9 and 2.5. The “Initial Opacity” value (individual corneas, before treatment) was 0.3 and 0 and 1.8, the “Opacity Change” value (individual corneas, final minus initial) was 1.6 and 0.9 and 0.7 and the IVIS (individual corneas, opacity + 15 × OD490) was 0.9 and 1.0. For the same molecule, the “Mean IVIS ± SD” value (three corneas) was 1.2 ± 0.4 and the “Mean Opacity Change” value (three corneas) was 1.1.
